# Test results as given in ChEMBL document CHEMBL1201862, “PubChem BioAssay data set” (2004).
#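 Exposure lasted 48 hours, with cells grown in 96-well plates and compounds tested at five concentrations. GI50: concentration for 50% inhibition of growth.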 Activity calls are given as the source filed them. Cut-off read from the data, not from the text of the source: active = GI50 up to about 1.1 µM and inactive = higher.
# Assays:
# Test in all cases: NCI-60 cell line screen, 48 h
# 786-0 = tested on: 786-0
# A498 = tested on: A498
# A549 = tested on: A549
# ACHN = tested on: ACHN
# CCRF-CEM = tested on: CCRF-CEM
# COLO 205 = tested on: COLO 205
# DLD-1 = tested on: DLD-1
# DMS-114 = tested on: DMS-114
# EKVX = tested on: EKVX
# HCC 2998 = tested on: HCC 2998
# HCT-116 = tested on: HCT-116
# HCT-15 = tested on: HCT-15
# HL-60 = tested on: HL-60
# HOP-18 = tested on: HOP-18
# HOP-62 = tested on: HOP-62
# HOP-92 = tested on: HOP-92
# HT-29 = tested on: HT-29
# IGROV-1 = tested on: IGROV-1
# K562 = tested on: K562
# KM-20L2 = tested on: KM-20L2
# KM12 = tested on: KM12
# LXFL 529 = tested on: LXFL 529
# M14 = tested on: M14
# M19-MEL = tested on: M19-MEL
# MOLT-4 = tested on: MOLT-4
# Malme-3M = tested on: Malme-3M
# NCI-H23 = tested on: NCI-H23
# NCI-H460 = tested on: NCI-H460
# NCI-H522 = tested on: NCI-H522
# OVCAR-3 = tested on: OVCAR-3
# OVCAR-4 = tested on: OVCAR-4
# OVCAR-5 = tested on: OVCAR-5
# OVCAR-8 = tested on: OVCAR-8
# RXF 393 = tested on: RXF 393
# RXF 631 = tested on: RXF 631
# SF-268 = tested on: SF-268
# SF-295 = tested on: SF-295
# SF-539 = tested on: SF-539
# SK-MEL-28 = tested on: SK-MEL-28
# SK-MEL-2 = tested on: SK-MEL-2
# SK-MEL-5 = tested on: SK-MEL-5
# SN12C = tested on: SN12C
# SNB-78 = tested on: SNB-78
# SR = tested on: SR
# SW-620 = tested on: SW-620
# TK-10 = tested on: TK-10
# U-251 = tested on: U-251
# UACC-257 = tested on: UACC-257
# UACC-62 = tested on: UACC-62
# UO-31 = tested on: UO-31
smiles,measurement,setting,value
COC(=O)/C(=N\NC(=O)c1ccccc1O)C(C#N)c1ccc(Cl)cc1 (stereo not given),GI50,786-0,18 µM (inactive)
same,GI50,A498,> 100 µM (inactive)
same,GI50,A549,3.85 µM (inactive)
same,GI50,ACHN,5.85 µM (inactive)
same,GI50,CCRF-CEM,36.8 µM (inactive)
same,GI50,COLO 205,> 100 µM (inactive)
same,GI50,DLD-1,24.5 µM (inactive)
same,GI50,DMS-114,24.7 µM (inactive)
same,GI50,EKVX,15.6 µM (inactive)
same,GI50,HCC 2998,30.3 µM (inactive)
same,GI50,HCT-116,30.3 µM (inactive)
same,GI50,HCT-15,33 µM
same,GI50,HL-60,24.9 µM (inactive)
same,GI50,HOP-18,69.3 µM (inactive)
same,GI50,HOP-62,14.6 µM (inactive)
same,GI50,HOP-92,89.7 µM (inactive)
same,GI50,HT-29,74.1 µM (inactive)
same,GI50,IGROV-1,7.4 µM (inactive)
same,GI50,K562,37.9 µM (inactive)
same,GI50,KM-20L2,33.8 µM (inactive)
same,GI50,KM12,43.6 µM (inactive)
same,GI50,LXFL 529,34.3 µM (inactive)
same,GI50,M14,40.6 µM (inactive)
same,GI50,M19-MEL,75.9 µM (inactive)
same,GI50,MOLT-4,31.4 µM (inactive)
same,GI50,Malme-3M,26.1 µM (inactive)
same,GI50,NCI-H23,24.4 µM (inactive)
same,GI50,NCI-H460,39 µM (inactive)
same,GI50,NCI-H522,25.2 µM (inactive)
same,GI50,OVCAR-3,29.9 µM (inactive)
same,GI50,OVCAR-4,26.7 µM (inactive)
same,GI50,OVCAR-5,34.9 µM (inactive)
same,GI50,OVCAR-8,28.1 µM (inactive)
same,GI50,RXF 393,2.04 µM (inactive)
same,GI50,RXF 631,36.1 µM (inactive)
same,GI50,SF-268,13.2 µM (inactive)
same,GI50,SF-295,30.5 µM (inactive)
same,GI50,SF-539,9.29 µM (inactive)
same,GI50,SK-MEL-28,28.3 µM (inactive)
same,GI50,SK-MEL-2,21.7 µM (inactive)
same,GI50,SK-MEL-5,16.7 µM (inactive)
same,GI50,SN12C,45.5 µM (inactive)
same,GI50,SNB-78,26.2 µM (inactive)
same,GI50,SR,37.3 µM (inactive)
same,GI50,SW-620,44.5 µM (inactive)
same,GI50,TK-10,> 100 µM (inactive)
same,GI50,U-251,44.7 µM (inactive)
same,GI50,UACC-257,31.5 µM (inactive)
same,GI50,UACC-62,3.69 µM (inactive)
same,GI50,UO-31,16.7 µM (inactive)
